Assay results from US20100144683A1, “METHODS FOR GENERATING MAMMALIAN MODELS OF ATOPIC DISEASES, AND SCREENING FOR THEIR TREATMENT” (ASSOCIATION POUR LA RECHERCHE A L'IGBMC (ARI), priority 2006, published 2010).
Entries after “also recorded” stand apart in the source; their conditions may differ.

Key:
cytokine RNA = assay: Cytokine RNA levels (Q-PCR) in treated ears; format: in vivo, mouse; settings: MC903 4 nmoles daily on ears; D16
[1] = Calcemia and overall health upon topical application; format: in vivo; settings: MC903 4 nmoles daily or 1α,25(OH)2D3 0.25 nmole every second day on ears, 16 days
Method: 1α,25-(OH)2D3, or MC903 and ethanol (vehicle) were applied to WT mouse right and left ears, respectively. Two shaved areas (1 cm^2 each) of dorsal skin were also treated with MC903 or ethanol. […]

[2] = system: ears of CD1 wildtype (WT) mice; assay: AD-like phenotype upon long-term ear topical treatment (appearance, histology, IHC); format: in vivo, mouse
Source text: White arrows point to the dermal/epidermal junction. FIGS. 2a and b show the ear appearance at day 17 after ethanol and MC903 treatment, respectively. FIGS. 2c and d show hematoxylin and eosin-stained (HE) ear sections of ethanol- and MC903-treated mice at day 17, respectively. Eosinophil-selective cytoplasmic red staining is pointed by arrows in the inset of (d). FIG. 2 u show hematoxylin and eosin-stained (HE) ear sections of ethanol- and 1α,25(OH)2D3 treated mice every second day, at a dose of 0.25 nmole, at day 18 (D18). FIGS. 2 e to n show the result of IHC performed on ear sections from ethanol- or MC903-treated mice at D17, with antibodies against GR1 (e and f), CD3 (g and h), CD4 (i and j), CD8 (k and l) and CD11c (m and n). Yellow color corresponds to staining of antibodies, whereas blue corresponds to DAPI staining of nuclei. FIGS. 2 o and p show the Toluidin blue (TB)-staining of ear sections. Red arrows point to one of the mast cells with intense blue color in the dermis.

CYP24A1 = CYP24A1 RNA level (Q-PCR) in MC903-treated ear; format: in vivo, mouse; settings: MC903 topically every day; D2-D4
Method: (§1) 1α,25-(OH)2D3, or MC903 and ethanol (vehicle) were applied to WT mouse right and left ears, respectively. Two shaved areas (1 cm^2 each) of dorsal skin were also treated with MC903 or ethanol.

TSLP [3] = assay: Serum TSLP levels after topical application; format: in vivo, mouse; settings: MC903 topical; D2-D4, undetectable at D0
Method: as §1

RXR/VDR heterodimers = biological target: T1, RXR/VDR heterodimers (Mus musculus, UniProt P48281); assay: MC903 topical treatment of RXRαβep-/- mice, TSLP RNA (Q-PCR); format: in vivo; settings: D4, versus RXRαβ CT
T1 construct: from tissue; host or cells: mouse ear skin (epidermal keratinocytes), topical treatment in vivo
T1 sequence (P48281 1-422): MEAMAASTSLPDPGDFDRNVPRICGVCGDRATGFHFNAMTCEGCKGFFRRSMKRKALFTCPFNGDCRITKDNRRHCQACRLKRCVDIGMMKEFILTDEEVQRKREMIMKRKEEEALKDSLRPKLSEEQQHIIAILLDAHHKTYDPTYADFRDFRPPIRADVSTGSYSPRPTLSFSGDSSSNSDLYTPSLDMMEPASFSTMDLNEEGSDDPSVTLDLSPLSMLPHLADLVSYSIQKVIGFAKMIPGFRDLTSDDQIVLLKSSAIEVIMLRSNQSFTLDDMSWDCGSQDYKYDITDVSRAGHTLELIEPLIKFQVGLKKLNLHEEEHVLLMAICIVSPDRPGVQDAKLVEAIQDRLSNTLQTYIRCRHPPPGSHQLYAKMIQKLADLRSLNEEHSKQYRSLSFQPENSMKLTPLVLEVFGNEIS
Source text: To examine whether the effect of MC903 was transduced through RXR/VDR heterodimers, ears of RXRαβ^ep−/− mice (tamoxifen-treated K14-Cre-ERT2^(tg/0)/RXRαβ^L2/L2/RXRβ^L2/L2; LI et al., 2005, abovementioned), as well as their control littermates (RXRαβ CT), were topically-treated with MC903.

VDR = assay: MC903 topical treatment of VDR control, VDRep-/- and VDR-/- mice; format: in vivo, mouse
Source text: To investigate whether the MC903-induced TSLP expression and appearance of an AD-like skin inflammation were mediated through VDR, MC903 was topically applied on ears of “floxed” VDR control (CT) mice (VDR^L2/L2 mice, in which both VDR alleles bear LoxP sites) and of their VDR^ep−/− littermates [K14-Cre^(tg/0)/VDR^L2/L2 mice in which the VDR alleles are selectively ablated in keratinocytes and which were obtained by crossing)K14-Cre^(tg/0) transgenic mice (LI et al., Development, vol. 128, p: 675-688, 2001) with floxed VDR^L2/L2 mice (our unpublished data)].
The FIGS. 3 a and b show the appearance of MC903-treated ears of VDR control (CT) (a) and VDR^ep−/− mice (b) at D17. White arrows in (a) points to lesioned skin.
The FIGS. 3 c and d show Hematoxylin and eosin-stained ear sections. Yellow arrows in inset of (c) point to three of many eosinophils (red cytoplasmic staining) in MC903-treated CT skin. Black arrows point to the dermal/epidermal junction. hf, hair follicle; u, utriculi (resulting from hair follicle degeneration in VDR^ep−/− mice). (Scale bar, 50 μm).

eosinophils = assay: Blood and tissue eosinophilia; format: in vivo, mouse; settings: MC903-treated mice
Source text: FIG. 2 s show the hematoxylin and eosin-stained sections of ear draining lymph node and liver of ethanol- and MC903-treated mice at D17. Yellow arrows point to three of many eosinophils (red cytoplasmic staining) in sections of lymph node and liver of MC903-treated mice. (Scale bars, 50 μm).

TSLP [4] = assay: TSLP RNA level (Q-PCR) in skin and organs after topical application of NR agonists; format: in vivo, mouse
Method: Four nmoles of ligands dissolved in ethanol were topically applied to whole ears of 6-8-week-old female CD1 wildtype (WT) mice for 4 consecutive days (D1 to D4), and TSLP RNA levels were determined on day 5.
as §1

TSLP [5] = assay: TSLP immunohistochemistry on ear and dorsal skin sections; format: in vivo, mouse; settings: MC903-treated ear and dorsal skin; D4
Source text: The white arrowhead points to autofluorescent erythrocytes, and white arrows point to the dermal/epidermal junction. (Scale bar, 50 μm).

TSLP [6] = assay: TSLP RNA level (Q-PCR) in skin and organs after topical application of NR agonists; format: in vivo, mouse; settings: increasing doses (MC903: 0.4, 1 or 4 nmoles per ear)
serum IgE and IgG = assay: Serum IgE and IgG levels (ELISA); format: in vivo, mouse; settings: MC903 topically for 16 days on ears
[7] = system: OVA-induced asthma mouse model; assay: Ovalbumin (OVA)-induced asthma mouse model with ear topical MC903; format: in vivo; settings: MC903 1.125 nmole on each ear every other day, day 0 to 21, day 22
Method: An experimental ovalbumin (OVA)-induced asthma mouse model was used. Mice were intraperitoneally injected with 50 μg OVA adsorbed on 2 mg aluminium hydroxide (Alum) on days 0 and 7, and were then challenged on days 18, 19, 20 and 21 by intranasal instillations of 10 μg OVA. As controls, mice were intraperitoneally injected with Alum, and receive intranasal instillations of saline. These mice were topically treated with either ethanol (as a control) or MC903 (1.125 nmole) on each ear every other day from day 0 to day 21 to generate an ear AD. Assessment of respiratory function, collection of bronchoalveolar lavage (BAL) and lung were performed on day 22. […] Aerosolized saline was used as control.

With “26,27-cyclo-22-ene-1α,24S-dihydroxyvitamin D3 [MC903]” the “TSLP transcripts in treated ears, long-term” value (cytokine RNA) was “markedly increased”, the “Th2-type cytokine transcripts (IL-4, IL-5, IL-13, IL-31, IL10 and IL-6)” value (cytokine RNA) was “significantly increased” and the “expression of Th1-type cytokine IFN-γ” value (cytokine RNA) was “enhanced”. The “expression of Th1-type cytokine TNF-β” value (cytokine RNA) was “unchanged”, the “hypercalcemia, overall health, weight loss” value [1] was “No hypercalcemia or overall health impairment and weight loss” and the ear appearance ([2]; MC903 4 nmoles daily or 1α,25(OH)2D3 0.25 nmole every second day, from D5, D17) was “reddening and swelling, that worsened with time; also recorded: red, scaly, swollen and crusted”. The “ear histology (hematoxylin/eosin)” value ([2]; MC903 4 nmoles daily, D17, 1α,25-(OH)2D3 0.25 nmole every other day, D18) was “epidermal hyperplasia and a heavy dermal cell infiltrate”, the “CD11c+ dermal dendritic cells (IHC)” value ([2]; MC903-treated ears, D17) was “large increase” and the “GR1-positive cells in dermis (IHC)” value ([2]; MC903-treated ears, D17) was “large number of positive cells”. For the same substance, the “T lymphocytes (CD3+) in dermis (IHC)” value ([2]; MC903-treated ears, D17) was “Numerous”, the “increase of mast cells in the dermis” value ([2]; MC903-treated ears, D17, Toluidin blue staining) was 4 fold and the “CYP24A1 transcripts in treated ear” value (CYP24A1) was “increased”. The “serum TSLP levels” value (TSLP [3]) was “increased”, the “induction of TSLP in RXRαβep-/- skin” value (RXR/VDR heterodimers) was “severely reduced” and the “skin inflammation in VDR-/- mice” value (VDR) was “no AD-like skin inflammation”. The “TSLP expression (Q-PCR) in skin of VDR CT mice” value (VDR; D4) was “strongly induced”, the “TSLP expression (Q-PCR) in skin of VDR-/- mice” value (VDR; D4) was “not at all” and the “TSLP expression (Q-PCR) in skin of VDRep-/- mutants” value (VDR; D4) was “weakly increased”. The “ear inflammation in VDR CT mice” value (VDR; D17) was “AD-like inflammation was obvious”, the “ear inflammation in VDRep-/- mice” value (VDR; D17) was “did not show any sign of inflammation” and the “eosinophils in ear-draining lymph nodes, liver and spleen” value (eosinophils; D16) was “increased number of eosinophils”. The “blood eosinophils (differential blood cell counts)” value (eosinophils; ethanol-treated mice 204±134) was 693±220 cells/μl, the “TSLP RNA in treated dorsal skin” value (TSLP [4]; MC903 on shaved dorsal skin (1 cm^2), D2-D4) was “increased” and the “TSLP RNA levels in treated right ear” value (TSLP [4]; MC903 topically every day on right ear of WT mice, D2, D3, D4, ethanol on left ear) was “increased in right ears, and further increased on D3 and D4”. For the same substance, the “TSLP transcripts in other organs (lung, thymus, salivary gland, tongue, colon, spleen, lymph node, liver)” value (TSLP [4]; MC903 topically on ears, D5) was “no increase”, the “TSLP expression by immunohistochemistry in epidermis” value (TSLP [5]) was “readily detected” and the “dose dependence of TSLP transcripts” value (TSLP [6]) was “dose-dependent increase”. The “serum IgE and IgG levels” value (serum IgE and IgG) was “increased”, the BAL cell numbers ([7]; OVA model) was “higher BAL cell numbers” and the “airway epithelium hypertrophy (lung sections)” value ([7]; OVA model) was “increased hypertrophy in airway epithelium”. The “lung inflammatory infiltration (lung sections)” value ([7]; OVA model) was “higher perivascular and peribronchial lung inflammatory infiltrations; also recorded: enhanced airway inflammation” and the “airway hyperresponsiveness (AHR), whole-body plethysmography” value ([7]; OVA sensitized and challenged) was “increased airway hyperresponsiveness”.
